Results taken from patent US5198458A, “Pyrrolidineamide derivatives of acylamino acid and pharmaceutical composition containing the same” (Suntory Limited, priority 1986, dated 1993).
Each block holds one compound with its values, some of them ahead of it.

Columns and labels:
[1] = test system: experimental amnesia caused in rats by scopolamine; assay: Preventive effect against experimental amnesia caused in rats by scopolamine (passive avoidance learning, intraperitoneal administration); type: in vivo, Wister male rats; details: for No. of avoidances during learning / Initial avoidance time: before scopolamine (3 mg/kg i.p.); for Initial avoidance time: learning; for Avoidance time After 24 hrs / No. of amnesic rats/No. of rats tested / Percentage amnesia: scopolamine 3 mg/kg i.p. after learning, 24 hrs
Experimental: Measurement of preventive effect against experimental amnesia caused in rats by scopolamine (Intraperitoneal administration)
Several of the anti-prolyl endopeptidase compounds according to the present invention were checked for their ability to prevent the inhibition of long-term memory fixation by scopolamine. […] One hour after the administration, electric shocks were applied to the rats so that they would acquire passive avoidance learning. Immediately thereafter, scopolamine was administered intraperitoneally to each rat in an amount of 3 mg per kg of body weight.
The results of the test were assessed 24 hours after the administration of scopolamine. The number of amnesic rats and of sound rats was counted for each of the control group (rats to which the test compounds were not administered but to which only scopolamine and physiological saline were administered intraperitoneally) and the treated group (rats to which both the test compound and scopolamine were administered).

[2] = target: prolyl endopeptidase (Elizabethkingia meningoseptica, UniProt P27028); type: biochemical; details: amount per test tube for 50% inhibition; pH 7.0, 35° C., 10 minutes
Experimental: Measurement of anti-prolyl endopeptidase activity
The method of Yoshimoto and Tsuru [T. Yoshimoto and D. Tsuru, Agric. […] A mixture of 0.0025M Z-glycyl-proline-β-naphthylamide (0.25 ml), 0.1M phosphate buffer (pH, 7.0; 0.99 ml) and a solution of a particular anti-propyl endopeptidase compound (0.01 ml) was incubated in a test tube at 37° C. for 3 minutes. Thereafter, 0.1 ml of a solution of prolyl endopeptidase (0.2 U/ml) was added and the mixture was incubated at 35° C. for 10 minutes. After the reaction, 2.0 ml of Triton X-100 in 1M acetate buffer (pH, 4.0) was added to the reaction mixture so that the final concentration of the surfactant was 10%. The mixture was left at room temperature for 15 minutes and the absorbance (a) at 410 nm was measured.
A sample of a blind test was prepared by using the buffer instead of the anti-prolyl endopeptidase compound and its absorbance (b) was also measured. The percent inhibition of prolyl endopeptidase was calculated by the formula: […]

[3] = Acute toxicity test in mice; details: mouse, in vivo, ip; intraperitoneal, in DMSO, five mice per group
Experimental: Acute toxicity test in mice
Test samples were prepared by dissolving the respective compounds in DMSO, and a portion (0.1 ml) of the so conditioned test sample was administered intraperitoneally to each of the mice used. Each of the treated groups consisted of five mice.

Chain of prolyl endopeptidase (P27028 21-705): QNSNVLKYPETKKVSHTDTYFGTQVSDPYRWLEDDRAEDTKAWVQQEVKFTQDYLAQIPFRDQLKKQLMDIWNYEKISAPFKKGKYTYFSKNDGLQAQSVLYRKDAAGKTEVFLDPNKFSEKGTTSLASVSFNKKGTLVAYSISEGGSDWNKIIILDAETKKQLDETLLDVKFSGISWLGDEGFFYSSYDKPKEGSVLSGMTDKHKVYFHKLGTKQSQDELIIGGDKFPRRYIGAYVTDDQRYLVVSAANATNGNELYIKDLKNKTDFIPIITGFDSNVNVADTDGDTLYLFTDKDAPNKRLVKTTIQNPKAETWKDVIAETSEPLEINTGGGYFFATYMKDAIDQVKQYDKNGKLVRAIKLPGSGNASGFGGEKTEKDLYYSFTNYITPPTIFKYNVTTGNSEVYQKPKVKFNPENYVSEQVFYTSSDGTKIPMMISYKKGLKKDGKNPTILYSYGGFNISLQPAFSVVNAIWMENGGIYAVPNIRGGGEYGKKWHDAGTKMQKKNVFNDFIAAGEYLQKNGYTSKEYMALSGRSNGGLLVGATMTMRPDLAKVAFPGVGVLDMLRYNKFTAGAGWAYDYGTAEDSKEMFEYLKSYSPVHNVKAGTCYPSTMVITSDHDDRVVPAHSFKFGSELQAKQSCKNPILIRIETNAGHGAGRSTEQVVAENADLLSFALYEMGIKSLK

SMILES: CC(C)[C@H](NC(=O)CCCc1ccccc1)C(=O)N1CCCC1 [Compound No. 1, N-[N-(γ-phenyl)butyryl-L-valyl]pyrrolidine]
No. of avoidances during learning ([1]; 25 mg/kg i.p.): 1.8
Initial avoidance time ([1]; 25 mg/kg i.p.): 2.4 s
Avoidance time After 24 hrs ([1]; 25 mg/kg i.p.): 243.0 s
No. of amnesic rats/No. of rats tested ([1]; 25 mg/kg i.p.): 3/10
Percentage amnesia ([1]; 25 mg/kg i.p.): 30

SMILES: CC(C)C[C@H](NC(=O)CCCc1ccccc1)C(=O)N1CCCC1 [Compound No. 2]
IC50 [2]: 0.15 μg/test tube
No. of avoidances during learning ([1]; 25 mg/kg i.p.): 2.2
Initial avoidance time ([1]; 25 mg/kg i.p.): 2.7 s
Avoidance time After 24 hrs ([1]; 25 mg/kg i.p.): 264.6 s
No. of amnesic rats/No. of rats tested ([1]; 25 mg/kg i.p.): 2/10
Percentage amnesia ([1]; 25 mg/kg i.p.): 20
LD50 [3]: > 600 mg/kg

SMILES: O=C([C@@H]1CCCN1C(=O)CCCc1ccccc1)N1CCCC1 [Compound No. 18, N-[N-(γ-phenyl)butyryl-L-prolyl]pyrrolidine]
No. of avoidances during learning ([1]; 5 mg/kg i.p.): 1.8
Initial avoidance time ([1]; 5 mg/kg i.p.): 2.8 s
Avoidance time After 24 hrs ([1]; 5 mg/kg i.p.): 300.0 s
No. of amnesic rats/No. of rats tested ([1]; 5 mg/kg i.p.): 0/10
Percentage amnesia ([1]; 5 mg/kg i.p.): 0

IC50 [2]: 0.001 μg/test tube
SMILES: O=C([C@@H]1CCCN1C(=O)CCCOc1ccccc1/C=C/c1ccccc1)N1CCCC1 [Compound No. 35, N-{N-[γ(o-(E)-stilbenyloxy)butyryl]-L-prolyl)pyrrolidine]

IC50 [2]: 0.02 μg/test tube
SMILES: CCCCCCCC/C=C\CCCCCCCC(=O)N1CCC[C@H]1C(=O)N1CCCC1 [Compound No. 43, N-(N-oleoyl-L-prolyl)pyrrolidine]
No. of avoidances during learning ([1]; 1 mg/kg i.p.): 3.4
Initial avoidance time ([1]; 1 mg/kg i.p.): 1.9 s
Avoidance time After 24 hrs ([1]; 1 mg/kg i.p.): 240.8 s
No. of amnesic rats/No. of rats tested ([1]; 1 mg/kg i.p.): 2/10
Percentage amnesia ([1]; 1 mg/kg i.p.): 20

IC50 [2]: 0.15 μg/test tube
SMILES: CCCC[C@H](NC(=O)CCCc1ccccc1)C(=O)N1CCCC1 [compound 5]

IC50 [2]: 0.03 μg/test tube
SMILES: CC(C)C[C@H](NC(=O)CCCOc1ccccc1/C=C/c1ccccc1)C(=O)N1CCCC1 [compound 9]

IC50 [2]: 0.02 μg/test tube
SMILES: CC(C)[C@H](NC(=O)CCCOc1ccccc1/C=C/c1ccccc1)C(=O)N1CCCC1 [compound 10]

IC50 [2]: 0.08 μg/test tube
SMILES: CC(C)C[C@H](NC(=O)CCCOc1ccc(Cc2ccccc2)cc1)C(=O)N1CCCC1 [compound 12]

IC50 [2]: 0.04 μg/test tube
SMILES: CC(C)[C@H](NC(=O)CCCOc1ccc(Cc2ccccc2)cc1)C(=O)N1CCCC1 [compound 13]

IC50 [2]: 0.07 μg/test tube
SMILES: CCCCCCCC/C=C\CCCCCCCC(=O)N[C@@H](CCCC)C(=O)N1CCCC1 [compound 16]
No. of avoidances during learning ([1]; 20 mg/kg i.p.): 2.1
Initial avoidance time ([1]; 20 mg/kg i.p.): 2.2 s
Avoidance time After 24 hrs ([1]; 20 mg/kg i.p.): 252.0 s
No. of amnesic rats/No. of rats tested ([1]; 20 mg/kg i.p.): 2/10
Percentage amnesia ([1]; 20 mg/kg i.p.): 20

IC50 [2]: 0.20 μg/test tube
SMILES: O=C([C@@H]1CCCN1C(=O)COc1ccc(Cl)cc1)N1CCCC1 [compound 20]

SMILES: O=C([C@@H]1CCCN1C(=O)CCCOc1ccccc1)N1CCCC1 [compound 21]
IC50 [2]: 0.001 μg/test tube
LD50 [3]: 350 mg/kg

IC50 [2]: 0.008 μg/test tube
SMILES: O=C([C@@H]1CCCN1C(=O)CCCOc1ccccc1O)N1CCCC1 [compound 22]

IC50 [2]: 0.003 μg/test tube
SMILES: CCC(=O)c1ccc(OCCCC(=O)N2CCC[C@H]2C(=O)N2CCCC2)cc1 [compound 23]

IC50 [2]: 0.004 μg/test tube
SMILES: CCC(=O)c1ccccc1OCCCC(=O)N1CCC[C@H]1C(=O)N1CCCC1 [compound 24]

IC50 [2]: 0.008 μg/test tube
SMILES: CCCCCCCCCc1ccc(OCCCC(=O)N2CCC[C@H]2C(=O)N2CCCC2)cc1 [compound 25]

SMILES: C=CCc1ccccc1OCCCC(=O)N1CCC[C@H]1C(=O)N1CCCC1 [compound 26]
IC50 [2]: 0.002 μg/test tube
LD50 [3]: 390 mg/kg

SMILES: C=CCOc1ccccc1CCCC(=O)N1CCC[C@H]1C(=O)N1CCCC1 [compound 27]
IC50 [2]: 0.01 μg/test tube
LD50 [3]: 390 mg/kg

IC50 [2]: 0.009 μg/test tube
SMILES: O=C([C@@H]1CCCN1C(=O)CCCCOc1ccc(Oc2ccccc2)cc1)N1CCCC1 [compound 29]

IC50 [2]: 0.005 μg/test tube
SMILES: O=C([C@@H]1CCCN1C(=O)CCCOc1ccccc1OCc1ccccc1)N1CCCC1 [compound 30]

IC50 [2]: 0.004 μg/test tube
SMILES: O=C(c1ccccc1)c1ccc(OCCCC(=O)N2CCC[C@H]2C(=O)N2CCCC2)cc1 [compound 31]

IC50 [2]: 0.001 μg/test tube
SMILES: O=C(c1ccccc1)c1ccccc1OCCCC(=O)N1CCC[C@H]1C(=O)N1CCCC1 [compound 32]

IC50 [2]: 0.0004 μg/test tube
SMILES: O=C([C@@H]1CCCN1C(=O)CCCOc1cccc(Cc2ccccc2)c1)N1CCCC1 [compound 33]

IC50 [2]: 0.001 μg/test tube
SMILES: O=C([C@@H]1CCCN1C(=O)CCCOc1ccccc1Cc1ccccc1)N1CCCC1 [compound 34]

IC50 [2]: 0.003 μg/test tube
SMILES: O=C([C@@H]1CCCN1C(=O)CCCOc1ccc(/C=C/c2ccccc2)cc1)N1CCCC1 [compound 36]

SMILES: O=C([C@@H]1CCCN1C(=O)CCCOc1ccccc1CCc1ccccc1)N1CCCC1 [compound 37]
IC50 [2]: 0.002 μg/test tube
LD50 [3]: 350 mg/kg

IC50 [2]: 0.003 μg/test tube
SMILES: O=C([C@@H]1CCCN1C(=O)CCOc1ccccc1/C=C/c1ccccc1)N1CCCC1 [compound 39]

IC50 [2]: 0.002 μg/test tube
SMILES: O=C([C@@H]1CCCN1C(=O)CCCCOc1ccccc1/C=C/c1ccccc1)N1CCCC1 [compound 40]

IC50 [2]: 0.001 μg/test tube
SMILES: O=C(/C=C/c1ccccc1OCCCC(=O)N1CCC[C@H]1C(=O)N1CCCC1)c1ccccc1 [compound 41]

SMILES: O=C(/C=C/c1ccccc1)c1ccccc1OCCCC(=O)N1CCC[C@H]1C(=O)N1CCCC1 [compound 42]
IC50 [2]: 0.0008 μg/test tube
LD50 [3]: 360 mg/kg

IC50 [2]: 0.015 μg/test tube
SMILES: CCCCC/C=C\C/C=C\CCCCCCCC(=O)N1CCC[C@H]1C(=O)N1CCCC1 [compound 46]
